Format in all cases: biochemical
One assay concerns the target T1, recombinant human VAP-1 (Homo sapiens, UniProt Q16853).
T1 construct: purchased R&D systems
T1 sequence (Q16853 1-763): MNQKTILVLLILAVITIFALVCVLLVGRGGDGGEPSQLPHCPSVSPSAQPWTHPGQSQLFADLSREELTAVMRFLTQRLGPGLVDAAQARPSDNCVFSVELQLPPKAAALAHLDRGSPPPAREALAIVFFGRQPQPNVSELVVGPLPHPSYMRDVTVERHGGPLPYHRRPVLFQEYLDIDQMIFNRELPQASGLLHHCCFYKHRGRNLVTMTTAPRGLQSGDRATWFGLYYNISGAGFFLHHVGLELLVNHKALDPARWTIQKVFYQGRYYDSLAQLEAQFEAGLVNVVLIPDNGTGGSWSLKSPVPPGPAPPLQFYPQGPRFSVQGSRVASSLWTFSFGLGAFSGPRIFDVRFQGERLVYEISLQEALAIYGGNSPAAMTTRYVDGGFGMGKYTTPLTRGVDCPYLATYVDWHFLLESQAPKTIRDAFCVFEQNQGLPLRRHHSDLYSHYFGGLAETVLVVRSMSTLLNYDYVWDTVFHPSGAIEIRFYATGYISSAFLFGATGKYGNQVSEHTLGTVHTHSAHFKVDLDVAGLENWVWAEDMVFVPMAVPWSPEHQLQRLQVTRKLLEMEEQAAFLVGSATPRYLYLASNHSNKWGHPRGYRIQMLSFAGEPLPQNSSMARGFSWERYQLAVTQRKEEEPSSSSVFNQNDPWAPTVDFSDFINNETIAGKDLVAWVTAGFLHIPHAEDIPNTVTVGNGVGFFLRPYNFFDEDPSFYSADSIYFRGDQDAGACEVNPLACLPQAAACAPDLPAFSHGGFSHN
Kind of assay: Activity on recombinant human VAP-1, HRP-coupled Amplex Red hydrogen peroxide assay. The settings on record: substrate 1 mM benzylamine; compound incubated with enzyme at 37° C. for 30 minutes; pH 7.4; read-out: Inhibitory Activity (IC50, nM) human VAP-1. In short, it runs like this:
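Enzyme in 50 mM sodium phosphate (pH 7.4) is exposed to test compound for 30 min at 37 °C. Benzylamine (1 mM) with HRP and Amplex Red then starts the reaction, and the fluorescence rate, relative to a DMSO-only control, gives IC50.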

The target of assay [1] is T2, recombinant human MAO-A (monoamine oxidase-A) (Homo sapiens, UniProt P21397).
T2 construct: purchased Sigma-Aldrich
T2 sequence (P21397 1-527): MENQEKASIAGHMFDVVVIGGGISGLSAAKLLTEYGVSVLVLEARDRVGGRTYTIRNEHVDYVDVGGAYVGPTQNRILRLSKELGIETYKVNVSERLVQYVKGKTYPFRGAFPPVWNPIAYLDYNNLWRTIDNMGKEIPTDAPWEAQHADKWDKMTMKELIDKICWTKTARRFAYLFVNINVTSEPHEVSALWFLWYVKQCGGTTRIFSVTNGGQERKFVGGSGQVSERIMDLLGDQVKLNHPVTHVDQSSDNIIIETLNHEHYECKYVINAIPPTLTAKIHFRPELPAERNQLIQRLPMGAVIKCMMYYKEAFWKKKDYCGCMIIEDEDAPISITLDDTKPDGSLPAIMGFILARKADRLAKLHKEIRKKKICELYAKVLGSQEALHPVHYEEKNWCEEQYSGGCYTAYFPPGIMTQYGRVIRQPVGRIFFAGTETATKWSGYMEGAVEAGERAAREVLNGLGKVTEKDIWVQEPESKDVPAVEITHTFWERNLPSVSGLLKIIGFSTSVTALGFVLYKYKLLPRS
The assay can be described thus: Activity on recombinant human MAO-A, method similar to the VAP-1 assay. Particulars: substrate 0.5 mM tyramine; read-out: Inhibitory Activity (IC50, nM) MAO-A. The method in brief:
(§1)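 Enzyme in pH 7.4 phosphate buffer; 30 min, 37° C with compound (DMSO <1%); start with 200 uM Amplex Red + 1 U/mL HRP + tyramine 0.5 mM (MAO-A) or benzylamine 1 mM (MAO-B); kinetic read ex 544/em 590, 1-2 h; % rate decrease vs DMSO control → IC50, 4-parameter fit.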

Assay [2] addresses T3, recombinant human MAO-B (monoamine oxidase-B) (Homo sapiens, UniProt P27338).
T3 construct: purchased Sigma-Aldrich
T3 sequence (P27338 1-520): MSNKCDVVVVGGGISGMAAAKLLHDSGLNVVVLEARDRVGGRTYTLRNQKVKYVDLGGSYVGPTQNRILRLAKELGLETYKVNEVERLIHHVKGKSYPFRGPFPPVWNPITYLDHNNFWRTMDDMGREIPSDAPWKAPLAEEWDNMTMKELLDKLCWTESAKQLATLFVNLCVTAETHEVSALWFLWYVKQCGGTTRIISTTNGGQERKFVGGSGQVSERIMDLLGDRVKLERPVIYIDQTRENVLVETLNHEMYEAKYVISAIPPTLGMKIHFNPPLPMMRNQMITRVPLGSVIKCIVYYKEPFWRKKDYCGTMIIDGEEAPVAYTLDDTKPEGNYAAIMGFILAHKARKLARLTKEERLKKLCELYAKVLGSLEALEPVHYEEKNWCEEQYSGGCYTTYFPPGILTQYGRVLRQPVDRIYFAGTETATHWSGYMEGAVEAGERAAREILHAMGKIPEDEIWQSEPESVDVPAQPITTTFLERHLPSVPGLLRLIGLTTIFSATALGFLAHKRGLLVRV
Kind of assay: Activity on recombinant human MAO-B, method similar to the VAP-1 assay. The settings on record: substrate 1 mM benzylamine; read-out: Inhibitory Activity (IC50, nM) MAO-B. The method in brief:
as §1

Assay [3] deals with T4, recombinant human DAO (diamine oxidase) (Homo sapiens, UniProt P19801).
T4 construct: purchased R&D systems
T4 sequence (P19801 20-751): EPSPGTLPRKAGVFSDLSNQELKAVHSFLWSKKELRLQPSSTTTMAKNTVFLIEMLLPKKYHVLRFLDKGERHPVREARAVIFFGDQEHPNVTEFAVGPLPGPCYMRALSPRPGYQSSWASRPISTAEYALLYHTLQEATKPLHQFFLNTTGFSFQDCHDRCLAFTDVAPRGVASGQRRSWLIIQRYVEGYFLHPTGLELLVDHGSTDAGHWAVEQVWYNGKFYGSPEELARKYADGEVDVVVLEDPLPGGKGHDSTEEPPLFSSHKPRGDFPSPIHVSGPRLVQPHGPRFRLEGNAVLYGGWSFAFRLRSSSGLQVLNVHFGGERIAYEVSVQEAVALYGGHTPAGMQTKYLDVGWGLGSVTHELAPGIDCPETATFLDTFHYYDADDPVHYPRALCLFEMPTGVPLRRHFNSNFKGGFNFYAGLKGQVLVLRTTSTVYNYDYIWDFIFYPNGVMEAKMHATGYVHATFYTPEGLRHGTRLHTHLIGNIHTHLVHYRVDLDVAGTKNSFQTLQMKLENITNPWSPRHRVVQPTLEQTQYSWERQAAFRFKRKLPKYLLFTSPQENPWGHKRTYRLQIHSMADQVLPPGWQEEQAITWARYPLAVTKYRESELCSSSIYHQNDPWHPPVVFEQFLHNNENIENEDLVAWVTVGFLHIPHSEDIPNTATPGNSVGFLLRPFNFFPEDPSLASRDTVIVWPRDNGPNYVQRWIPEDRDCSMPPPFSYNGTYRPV
The assay can be described thus: Activity on recombinant human DAO, method similar to the VAP-1 assay. The settings on record: substrate 1 mM putrescine; read-out: Inhibitory Activity (IC50, nM) DAO. The method in brief:
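Inhibition of recombinant human diamine oxidase (DAO, R&D systems) was assessed by the same approach as the VAP-1 assay, using 1 mM putrescine as substrate. Hydrogen peroxide formed was detected through an HRP-coupled Amplex Red reaction yielding fluorescent resorufin, read at 544 nm excitation and 590 nm emission. IC50 values came from four-parameter logistic fitting in GraphPad Prism.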

Molecules are shown by their SMILES. Where a name gives a salt, the structure may show the parent alone.

For the compound `NC/C(=C\F)Cn1ncn(Cc2ccc(-c3cc(F)c4c(c3)CCC(=O)N4)s2)c1=O` [Example 80, 6-[5-[[1-[(E)-2-(aminomethyl)-3-fluoro-allyl]-5-oxo-1,2,4-triazol-4-yl]methyl]-2-thienyl]-8-fluoro-3,4-dihydro-1H-quinolin-2-one], the IC50 (in general, the concentration needed to halve the response being measured) on recombinant human VAP-1 is 0.2 nM; in assay [1], over 100000 nM; in assay [2], 6300 nM; in assay [3], 380 nM.
On to `NC/C(=C\F)Cn1ncn(Cc2ccc(-c3cnc4c(c3)CCC(=O)N4)s2)c1=O` [Example 148, 6-[5-({1-[(2E)-2-(aminomethyl)-3-fluoroprop-2-en-1-yl]-5-oxo-1,5-dihydro-4H-1,2,4-triazol-4-yl}methyl)thiophen-2-yl]-3,4-dihydro-1,8-naphthyridin-2(1H)-one], for which the IC50 at recombinant human VAP-1 was 0.4 nM; in assay [1] it was over 100000 nM; in assay [2] it was 24000 nM; in assay [3] it was 420 nM.
The like results for `CS(=O)(=O)Nc1ccc(-c2ccc(Cn3cnn(C/C(=C/F)CN)c3=O)s2)cc1` [Example 7, N-4-[5-(1-[(2E)-2-(aminomethyl)-3-fluoroprop-2-en-1-yl]-5-oxo-1,5-dihydro-4H-1,2,4-triazol-4-ylmethyl)thiophen-2-yl]phenylmethansulfonamide hydrochloride] were, in that order, 0.4 nM, 35000 nM, 11000 nM and 1000 nM.
Regarding `NC/C(=C\F)Cn1ncn(Cc2ccc(-c3ccc(OCC4CC4)nc3)s2)c1=O` [Example 174, 2-[(2E)-2-(aminomethyl)-3-fluoroprop-2-en-1-yl]-4-({5-[6-(cyclopropylmethoxy)pyridin-3-yl]thiophen-2-yl}methyl)-2,4-dihydro-3H-1,2,4-triazol-3-one], the IC50 at recombinant human VAP-1 was 7.7 nM; in assay [1], over 100000 nM; in assay [2], 570 nM; in assay [3], 1000 nM.
For `NC/C(=C\F)Cn1ncn(Cc2ccc(-c3ccc4c(c3)C(=O)NC4)s2)c1=O` [Example 67, 6-[5-(1-[(2E)-2-(aminomethyl)-3-fluoroprop-2-en-1-yl]-5-oxo-1,5-dihydro-4H-1,2,4-triazol-4-ylmethyl)thiophen-2-yl]-2,3-dihydro-1H-isoindol-1-one hydrochloride], the IC50 was 0.3 nM at recombinant human VAP-1, over 100000 nM in assay [1], 11000 nM in assay [2] and 1200 nM in assay [3].
The matching figures for `NC/C(=C\F)Cn1ncn(Cc2ccc(C3=CCNCC3)s2)c1=O` [Example 163, 2-[(2E)-2-(aminomethyl)-3-fluoroprop-2-en-1-yl]-4-{[5-(1,2,3,6-tetrahydropyridin-4-yl)thiophen-2-yl]methyl}-2,4-dihydro-3H-1,2,4-triazol-3-one]: 2.1 nM, over 100000 nM, 5500 nM and 300 nM.
The matching figures for `CCOc1ncc(-c2ccc(Cn3cnn(C/C(=C/F)CN)c3=O)s2)cn1` [Example 179, 2-[(2E)-2-(aminomethyl)-3-fluoroprop-2-en-1-yl]-4-{[5-(2-ethoxypyrimidin-5-yl)thiophen-2-yl]methyl}-2,4-dihydro-3H-1,2,4-triazol-3-one]: 1.2 nM, over 100000 nM, 8400 nM and 89 nM.
The matching figures for `NC/C(=C\F)Cn1ncn(Cc2ccc(-c3ccc(C4CCOCC4)cc3)s2)c1=O` [Example 25, 2-[(2E)-2-(aminomethyl)-3-fluoroprop-2-en-1-yl]-4-(5-[4-(tetrahydro-2H-pyran-4-yl)phenyl]thiophen-2-ylmethyl)-2,4-dihydro-3H-1,2,4-triazol-3-one hydrochloride]: 3.1 nM, over 100000 nM, 1300 nM and 690 nM.
Turning to `NC/C(=C\F)Cn1ncn(Cc2ccc(-c3cccc(-c4noc(C5CC5)n4)c3)s2)c1=O` [Example 36, 2-[(2E)-2-(aminomethyl)-3-fluoroprop-2-en-1-yl]-4-(5-[3-(5-cyclopropyl-1,2,4-oxadiazol-3-yl)phenyl]thiophen-2-ylmethyl)-2,4-dihydro-3H-1,2,4-triazol-3-one hydrochloride], the IC50 at recombinant human VAP-1 is 0.7 nM; in assay [1], over 100000 nM; in assay [2], 101 nM; in assay [3], 344 nM.
The matching figures for `CS(=O)(=O)CCn1cc(-c2ccc(Cn3cnn(C/C(=C/F)CN)c3=O)s2)ccc1=O` [Example 188, 5-[5-({1-[(2E)-2-(aminomethyl)-3-fluoroprop-2-en-1-yl]-5-oxo-1,5-dihydro-4H-1,2,4-triazol-4-yl}methyl)thiophen-2-yl]-1-[2-(methylsulfonyl)ethyl]pyridin-2(1H)-one]: 4.2 nM, over 100000 nM, over 10000 nM and 450 nM.
Take `CS(=O)(=O)c1ccc(-c2csc(Cn3cnn(C/C(=C/F)CN)c3=O)c2)cc1` [Example 201]: the IC50 at recombinant human VAP-1 was 1.5 nM; in assay [1], over 100000 nM; in assay [2], 3000 nM; in assay [3], 450 nM.

The record behind these values is patent US11780830B2, “Triazolone derivatives or salts thereof and pharmaceutical compositions comprising the same” (YUHAN CORPORATION, priority 2018, dated 2023).
